# Measured values as given in patent publication US20260109721A1, “IONIZABLE CATIONIC LIPIDS INCORPORATING SILICON: SYNTHESIS AND LNP FORMULATION” (priority 2023, published 2026).
# Tests used:
# [1] = LNP size, PDI and zeta potential by Dynamic Light Scattering (Method A); assay type: physicochemical; conditions: LNP formulated with the lipid, DLS
# Outline: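 LNPs formed by microfluidic mixing of ethanolic lipid mix with Luc mRNA in 10 mM citrate pH 4.0, about 12 ml/min total flow at 3:1 ratio. Particle size, PDI and zeta potential then measured by dynamic light scattering.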
# [2] = test system: HeLa cells; experiment: Cell viability assessment with MTT assay (Method B); assay type: cell-based; conditions: 24 h
# Procedure: The synthesized lipids were tested in term of in vitro transfection efficacy and toxicity on HeLa cells. In order to perform the mentioned biological tests, appropriate LNPs had to be formulated from the synthesized lipids. The formulation technique was different in Method A and B. The particle size, polydispersity index (PDI) and zeta potential of resulting LNPs were determined by means of Dynamic Light Scattering technique (DLS). Prior to biological testing the encapsulation efficiency (EE) of the loaded LNPs was determined by using RiboGreen RNA assay. In case of Method A Luc mRNA while in case of Method B GFP mRNA was transfected into the cells. In parallel with the transfection experiments, toxicity of the investigated LNPs was determined, in case of Method A resazurin assay while in case of Method B MTT assay was used. Additionally, the toxicity of the lipids was investigated on HepG2 cells and IC50 values were determined.
# • MEM (Sigma, cat #M5650-500 mL) • Fetal Bovine Serum, FBS (Sigma, cat #F7524-500 mL) • Thiazolyl Blue Tetrazolium Bromide, MTT (TCI Chemicals, cat #D0801-5G) • Solutions of the formulations (see “Preparation of GFP mRNA loaded LNP” protocol) • Dilutor: 10 mL MEM+0,036 mL ethanol • Phosphate buffered saline, PBS
# • 1. Plate 10,000 HeLa cells per well in 96 well plate. […] Total 60 wells should be seeded. Incubate in MEM+10% FBS at 37° C. in a humidified atmosphere with 5% CO2 for 24 h. • 2. Examine under the microscope. Confluency must be at or nearly 80%. • 3. Gently remove the media (aspirate). Place 50 μL of the following formulations: • a) 6 wells with dilutor—negative control • b) 6 wells with Lipofectamine-50—positive control. • c) 6 wells with Lipofectamine-6—secondary positive control • d) 6 wells per formulations—test samples. • 4. Incubate plate for 1 hours at 37° C. • 5. Add 50 μL of MEM+20% FBS (which will become 10% upon dilution). • 6. […] Measure the absorbance of each well at 570 nm using a microplate reader. Measure the absorbance at a reference wavelength of 650 nm to subtract background absorbance. • 11. […]
Structure (SMILES),PDI [1],Size (nm) [1] [nm],Zeta potential (mV) [1] [mV],Cell Viability % [2] [%]
"CCCCC/C=C\C/C=C\CCCCCCCCOC(CCCCCCC/C=C\C/C=C\CCCCC)O[Si](C)(C)OCCCCCCN(CCO)CCO (centres unmarked) [Example 48, (23Z,26Z)-13-((8Z,11Z)-heptadeca-8,11-dien-1-yl)-3-(2-hydroxyethyl)-11,11-dimethyl-10,12,14-trioxa-3-aza-11-siladotriaconta-23,26-dien-1-ol]",0.052,149.6,−7.501,51.5
"CCCCC/C=C\C/C=C\CCCCCCCCOC(CCCCCCC/C=C\C/C=C\CCCCC)O[Si](C)(C)OCCCCCCN(C)CCO (centres unmarked) [Example 56, (23Z,26Z)-13-((8Z,11Z)-heptadeca-8,11-dien-1-yl)-3,11,11-trimethyl-10,12,14-trioxa-3-aza-11-siladotriaconta-23,26-dien-1-ol]",0.057,149.5,−10.08,40.2
"CCCCC/C=C\C/C=C\CCCCCCCCOC(CCCCCCC/C=C\C/C=C\CCCCC)O[Si](C)(C)OCCCCCCN1CCN(CCO)CC1 (centres unmarked) [Example 58, 2-(4-((20Z,23Z)-10-((8Z,11Z)-heptadeca-8,11-dien-1-yl)-8,8-dimethyl-7,9,11-trioxa-8-silanonacosa-20,23-dien-1-yl)piperazin-1-yl)ethan-1-ol]",0.011,160.6,−11.86,52.1
"C#CCN(C)CCCCCCO[Si](C)(C)OC(CC(C)(C)C(=O)OCCCCCCCC/C=C\CCCCCCCC)OCCCCCCCC/C=C\CCCCCCCC (centres unmarked) [Example 97, (Z)-octadec-9-en-1-yl 4,12,12,16,16-pentamethyl-14-(((Z)-octadec-9-en-1-yl)oxy)-11,13-dioxa-4-aza-12-silaheptadec-1-yn-17-oate]",0.26,101.9,−22.01,–
"CCCCCCCCCCCOC(=O)CCCCCN(CCO)CCCCCCCC(=O)OC(CCCCCCCC)CCCCCCCC [SM-102, reference compound]",–,77.03,−5.03,–
